# How the values were obtained:
# SHK male mice = assay: Recognition of New Objects by Mice Under Scopolamine and MK-801; type: in vivo; details: scopolamine 1 mg/kg and MK-801 0.2 mg/kg
# Description: The experiments were carried out in a closed cross shaped labyrinth which consisted of 4 peripheral sections connected with the central chamber via a 7×7 cm hole. The labyrinth was made of black plastic and its sections were of 14×14×14 cm size. The top cover of the labyrinth was transparent.
# A mouse was placed in the central section of the labyrinth and allowed to investigate the environment. A mouse was considered to have entered a section once all of its four paws were inside the chamber. A test was considered to be completed when the mouse had moved 12 times between the sections, having made a total of 13 visits. The floor of the labyrinth was cleaned after each animal.
# With each mouse the test was carried out twice with 1 hour interval.
# During the first test, each section of the labyrinth contained a circular plastic cup of 3 cm height and 7 cm diameter. During the second test the cover in each of the two opposing sections was replaced by a conical glass bulb of 7 cm height and 4 cm across the bottom. The time that the mice spent in each section of the labyrinth was registered and the index of new object recognition was calculated as the ratio of the time spent in the sections with the bulbs to the time spent in all sections of the labyrinth. If no preference is given to the sections with new objects the index is 0.5.
# When new objects appear the mice spend more time in the section containing them that results in an increased recognition index. Scopolamine (1 mg/kg) and MK-801 (0.2 mg/kg) disturbed learning (memory) that leads to lowering of the recognition index.
# BALB/c male mice [1] = assay: Passive Avoidance of Mice in a Shuttle Chamber, scopolamine or MK-801 (Example 8); type: in vivo; details: scopolamine 0.3 mg/kg or MK-801 0.1 mg/kg
# Description: Example 7. […] A shuttle chamber (Ugo Basile, Italy) consisted of two sections was used. […] The sections were connected via a hole which could be shut with a vertical door. The floor was made of transverse metal bars on which DC current impulses could be fed. Experiments were carried out on aged male mice of line BALB/c weighing 20-24 grams.
# On the first day of the experiment 30 minutes before training the mice were injected intraintestinally with physiological solution of scopolamine (0.3 mg/kg) or scopolamine in combination with antagonists of 5-HT6 receptors 1.2.1(2)HCl, 1.2.1(4)HCl or 1.2.1(5)HCl. Each group consisted of at least 8 animals. The animals were placed in the light section, and the latent period of the first entry into the dark chamber was registered. Then the vertical door was closed and the animal was punished by 0.6 mA DC current for 3 seconds. After that the animal was carried back to its living cell. In 22-24 hours the same animal was placed in the light section of the shuttle chamber once again and the latent period before its entry into the dark section, the total time of its stay in the light section and the number of entries into the dark section were registered. Each observation lasted for 5 minutes.
# The experiment was carried out in the same way as in example 7. On the first day 30 minutes before training the mice were injected intra-intestinally with a physiological solution of scopolamine (0.3 mg/kg) or MK-801(0.1 mg/kg).
# BALB/c male mice [2] = assay: Training Mice in the Morris Water labyrinth, scopolamine; type: in vivo; details: scopolamine 0.6 mg/kg; 1.2.1(5)HCl 0.1 mg/kg, 1.2.1(1)HCl 1 mg/kg, tacrine 3 mg/kg
# Description: A circular pool of 100 cm diameter and of 30 cm sides was used. It was filled with water at 20-22° C. A circular ceramic platform of 14 cm height was placed in the pool. The behavior of the animals was registered using an automated computer video system in addition with software package of movement analyzer Any-maze (Stoelting Colo., US). The experiments were carried out on aged male mice of BALB/c line weighing 20-24 grams. Before the experiments mice fit for learning were selected. This was done by placing the platform 1 cm above the water level and putting an animal on the platform for 20 seconds. Then the mouse was put in the water on the opposite side of the pool and allowed to find the platform and climb onto it for 60 seconds, where it was left for additional 20 seconds. After that the mouse was repeatedly immersed in the water on the opposite side of the pool and allowed to search for the platform. If it failed in finding the platform within 60 seconds the experimentator helped it to find the platform and climb onto it. If the mice couldn't find the platform itself in two consecutive attempts it was excluded from the experiment. During the next two days the platform was placed 0.5 centimeters lower the water level. Every day the mice were given four attempts for finding the platform within 60 seconds. The time interval between the attempts was 20 seconds, during which the mice stayed on the platform. Every day before the first attempt the mice was placed on the platform for 20 seconds. The time needed for finding and climbing the platform was registered. The animals were sunk in water in two different places on the side of the pool opposite to the platform. […] The animals of the control group were injected with physiological solution. At least 8 animals were used in each group. On the third day the platform was removed and each animal was placed in the pool once for a period of 60 seconds. The time each mouse spent in the area where the platform had been located during the previous days was registered. […]
# BALB/c male mice [3] = assay: Mice Behavior an Elevated Cross Shaped Labyrinth; type: in vivo; details: preference index for open sections, number of defecations
# Source text: The length of each section in the labyrinth is 30 cm, the width is 5 cm, the height of the walls is 15 cm. Two opposite sections are closed by transparent walls on the sides and on the butt ends, the other two sections are lit and opened. A mouse was placed in the center of the labyrinth and for the next five minutes the number of entries the open and closed sections and the time spent in each type of section was registered. […] The animals usually avoid the open sections (the preference index is between 0.2 and 0.3).
# [4] = test system: calcium canals regulated by the intracellular calcium depot; assay: Histamine-induced calcium stream in SK-N-SH cells, Phase 2 (lowering of intracellular calcium concentration); type: cell-based; details: Homo sapiens, 10 μM histamine, Fura 2 AM, Phase 2: discharge of intraplasmatic calcium
# BALB/c male mice [5] = assay: Passive Avoidance of Mice in a Shuttle Chamber, memory disturbed by scopolamine (Example 7); type: in vivo; details: scopolamine 0.3 mg/kg, injected 30 minutes before training
# Description: Example 7. […] A shuttle chamber (Ugo Basile, Italy) consisted of two sections was used. […] The sections were connected via a hole which could be shut with a vertical door. The floor was made of transverse metal bars on which DC current impulses could be fed. Experiments were carried out on aged male mice of line BALB/c weighing 20-24 grams. […] Each group consisted of at least 8 animals. The animals were placed in the light section, and the latent period of the first entry into the dark chamber was registered. Then the vertical door was closed and the animal was punished by 0.6 mA DC current for 3 seconds. After that the animal was carried back to its living cell. In 22-24 hours the same animal was placed in the light section of the shuttle chamber once again and the latent period before its entry into the dark section, the total time of its stay in the light section and the number of entries into the dark section were registered. Each observation lasted for 5 minutes. The experiment was carried out during the day time in an isolated laboratory using white noise at a level of about 70 decibel above the human hearing threshold. Scopolamine causes the disturbance of training (memory loss) which results in […]. The fact that 5-HT6 receptor antagonists can improve the learning ability that has been disturbed by scopolamine is regarded as evidence for their nootropic effect.
Structure (SMILES),"nootropic action (new object recognition, FIG. 13-14) (SHK male mice)","nootropic action (passive avoidance, FIGS. 5-10) (BALB/c male mice [1])","improvement of mice's training (Morris water labyrinth, FIGS. 11-12) (BALB/c male mice [2])","tranquilizing action (elevated cross shaped labyrinth, figure 19-21) (BALB/c male mice [3])",EC50 [4] [µM],"nootropic action (passive avoidance, FIGS. 2-4) (BALB/c male mice [5])"
"Cc1ccc2c(c1)c1c(n2CCc2ccccc2)CCN(C)C1.Cl [1.2.1(1)HCl, 2,8-dimethyl-5-(2-phenylethyl)-2,3,4,5-tetrahydro-1H-pyrido[4,3-b]indole hydrochloride]","nootropic action, the level of which is the most prominent",highest activity,statistically significant improvement of mice's training,"exhibit a tranquilizing action, which is the most prominent",0.15,–
"Cc1ccc2c(c1)c1c(n2CCc2ccc(C)nc2)CCN(C)C1.Cl [1.2.1(5)HCl, 2,8-dimethyl-5-[2-(6-methylpyridin-3-yl)ethyl]-2,3,4,5-tetrahydro-1H-pyrido[4,3-b]indole hydrochloride]",nootropic action,exhibit a nootropic action,statistically significant improvement of mice's training,exhibit a tranquilizing action,1.58,exhibit a nootropic action
O=C1CC2(CCCC2)CC(=O)N1CCCCN1CCN(c2ncccn2)CC1 [Buspiron],–,–,–,exhibit a tranquilizing action,–,–
Nc1c2c(nc3ccccc13)CCCC2 [tacrine],–,–,statistically significant improvement of mice's training,–,–,–

# Source: patent US20190233409A1, “SUBSTITUTED 2,3,4,5-TETRAHYDRO-1H-PYRIDO[4,3-B]INDOLES, METHODS FOR USE THEREOF” (priority 2017, published 2019)
